Key:
PIK3CG;PIK3CA (human) [1] = target: PIK3CG;PIK3CA (human) (UniProt P48736); assay: Assessment of Antiproliferation Activity in PC3-MM2 Cells; details: pc3mm2
PIK3CG;PIK3CA (human) [2] = target: PIK3CG;PIK3CA (human) (UniProt P48736); assay: Assessment of Antiproliferation Activity in MDA-MB-361 Cells
PIK3CG (human) = PIK3CG (human) (UniProt P48736); assay: Assessment of PIK3CG Kinase Activity
PIK3CA (human) = PIK3CA (human) (UniProt P42336); assay: Assessment of PIK3CA Kinase Activity
PIK3CG;PIK3CA (human) [3] = target: PIK3CG;PIK3CA (human) (UniProt P48736); assay: Assessment of Antiproliferation Activity in LNCaP Cells

PIK3CA (human), sequence (P42336 whole entry, looked up): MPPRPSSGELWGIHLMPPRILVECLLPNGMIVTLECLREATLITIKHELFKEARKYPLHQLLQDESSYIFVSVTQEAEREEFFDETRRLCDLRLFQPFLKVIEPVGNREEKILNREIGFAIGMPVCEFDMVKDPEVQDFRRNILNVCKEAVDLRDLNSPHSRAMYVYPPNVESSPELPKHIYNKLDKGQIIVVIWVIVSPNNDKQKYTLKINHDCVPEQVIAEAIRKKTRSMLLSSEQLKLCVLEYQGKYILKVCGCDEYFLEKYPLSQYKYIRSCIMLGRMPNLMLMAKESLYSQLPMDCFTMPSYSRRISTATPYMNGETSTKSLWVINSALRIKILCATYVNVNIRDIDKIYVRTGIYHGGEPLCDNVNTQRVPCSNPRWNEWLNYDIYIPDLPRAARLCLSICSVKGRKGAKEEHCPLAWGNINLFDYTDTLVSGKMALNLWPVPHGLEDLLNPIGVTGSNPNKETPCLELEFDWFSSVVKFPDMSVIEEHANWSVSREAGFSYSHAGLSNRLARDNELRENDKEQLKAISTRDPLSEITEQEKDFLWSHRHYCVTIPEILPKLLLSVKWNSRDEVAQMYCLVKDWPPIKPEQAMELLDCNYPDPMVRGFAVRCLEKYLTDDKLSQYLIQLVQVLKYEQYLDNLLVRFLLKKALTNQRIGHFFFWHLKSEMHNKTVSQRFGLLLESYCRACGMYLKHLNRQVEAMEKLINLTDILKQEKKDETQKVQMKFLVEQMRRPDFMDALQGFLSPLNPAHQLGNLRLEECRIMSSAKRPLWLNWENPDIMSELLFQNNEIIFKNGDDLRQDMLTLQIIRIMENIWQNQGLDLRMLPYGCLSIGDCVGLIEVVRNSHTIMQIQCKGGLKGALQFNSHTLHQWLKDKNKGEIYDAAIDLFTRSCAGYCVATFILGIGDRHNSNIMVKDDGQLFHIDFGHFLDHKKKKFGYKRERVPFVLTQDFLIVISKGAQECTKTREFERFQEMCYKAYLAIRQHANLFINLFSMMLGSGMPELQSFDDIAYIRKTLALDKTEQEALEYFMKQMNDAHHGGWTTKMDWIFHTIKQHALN
PIK3CG (human), sequence (P48736 whole entry, looked up): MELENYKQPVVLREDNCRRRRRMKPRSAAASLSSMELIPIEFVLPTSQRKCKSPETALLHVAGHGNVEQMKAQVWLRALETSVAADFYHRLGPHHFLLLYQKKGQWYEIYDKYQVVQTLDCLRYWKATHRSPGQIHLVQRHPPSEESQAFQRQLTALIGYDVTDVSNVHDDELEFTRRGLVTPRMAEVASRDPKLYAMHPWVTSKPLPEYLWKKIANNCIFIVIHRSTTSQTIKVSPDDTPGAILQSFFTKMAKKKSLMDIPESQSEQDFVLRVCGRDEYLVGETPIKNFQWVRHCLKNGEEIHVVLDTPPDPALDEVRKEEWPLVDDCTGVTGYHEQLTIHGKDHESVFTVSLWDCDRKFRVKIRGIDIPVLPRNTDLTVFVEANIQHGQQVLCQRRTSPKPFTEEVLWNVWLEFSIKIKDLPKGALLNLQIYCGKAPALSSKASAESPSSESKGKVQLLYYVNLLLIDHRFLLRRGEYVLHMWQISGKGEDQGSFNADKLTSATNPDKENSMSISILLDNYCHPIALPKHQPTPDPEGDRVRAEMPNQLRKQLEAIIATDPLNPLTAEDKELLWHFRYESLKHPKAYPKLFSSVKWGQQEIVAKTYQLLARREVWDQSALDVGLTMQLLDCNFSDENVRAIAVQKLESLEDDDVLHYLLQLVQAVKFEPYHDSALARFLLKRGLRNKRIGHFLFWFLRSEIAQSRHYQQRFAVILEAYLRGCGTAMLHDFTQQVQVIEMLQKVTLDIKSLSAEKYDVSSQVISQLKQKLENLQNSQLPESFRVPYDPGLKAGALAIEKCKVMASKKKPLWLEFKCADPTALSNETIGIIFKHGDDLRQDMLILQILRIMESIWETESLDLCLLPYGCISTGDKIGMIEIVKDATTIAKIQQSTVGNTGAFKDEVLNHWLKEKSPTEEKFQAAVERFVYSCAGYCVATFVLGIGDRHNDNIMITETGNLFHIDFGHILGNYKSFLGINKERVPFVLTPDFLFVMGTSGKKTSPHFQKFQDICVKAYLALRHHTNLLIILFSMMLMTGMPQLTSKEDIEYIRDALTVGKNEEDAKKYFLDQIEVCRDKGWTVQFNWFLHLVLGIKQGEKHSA
PIK3CG;PIK3CA (human), sequence (P48736 whole entry, looked up): as above

Structure (SMILES)	IC50 (PIK3CG;PIK3CA (human) [1])	IC50 (PIK3CG;PIK3CA (human) [2])	IC50 (PIK3CG (human))	IC50 (PIK3CA (human))	IC50 (PIK3CG;PIK3CA (human) [3])
CC(C)N1CCN(C(=O)c2ccc(NC(=O)Nc3ccc(-c4nc(N5CCCCC5)nc(N5CCOCC5)n4)cc3)cc2)CC1	193 nM	43 nM	58.5 nM		
O=C(Nc1ccc(-c2nc(N3C4CCC3COC4)nc(N3C4CCC3COC4)n2)cc1)N1CCNCC1			10000 nM		
Cc1ccc(-c2nc(-c3ccc(NC(=O)Nc4ccc(C(=O)N5CCCC5)cc4)cc3)nc(N3CCOCC3)n2)cc1	522 nM	113 nM	72 nM	12.5 nM	
Nc1ccc(-c2nc(-c3ccc(NC(=O)Nc4cccnc4)cc3)nc(N3CC4CCC(C3)O4)n2)cc1				832 nM	290 nM
CN(C)CCNC(=O)c1ccc(NC(=O)Nc2ccc(-c3nc(N4CCCCC4)nc(N4CCOCC4)n3)cc2)cc1			57.5 nM	3.5 nM	
Cc1ccc(-c2nc(-c3ccc(NC(=O)Nc4cccc(C(=O)N5CCC(N(C)C)CC5)c4)cc3)nc(N3CCOCC3)n2)cc1			658 nM	462 nM	
CC(C)N1CCN(C(=O)c2ccc(NC(=O)Nc3ccc(-c4nc(C5CCOCC5)nc(N5CCOCC5)n4)cc3)cc2)CC1			9.5 nM	3.2 nM	
CC(C)Nc1nc(-c2ccc(NC(=O)NC3CC3)cc2)nc(N2CC3CCC(C2)O3)n1			10000 nM		
CN1CCN(c2ccc(NC(=O)Nc3ccc(-c4nc(N5C6CCC5COC6)nc(N5[C@H](CO)CC[C@@H]5CO)n4)cc3)cc2)CC1			10000 nM		
FC(F)c1nc2ccccc2n1-c1nc(N2CCOCC2)nc(N2CC3CCC(C2)O3)n1			43 nM	24 nM	
O=C(Nc1ccc(-c2nc(NCCO)nc(N3CC4CCC(C3)O4)n2)cc1)Nc1cccnc1			10000 nM		
CN1CCC(Nc2ccc(NC(=O)Nc3ccc(-c4nc(N5C6CCC5COC6)nc(N5C6CCC5COC6)n4)cc3)cc2)CC1				6340 nM	3 nM
O=C(Nc1ccc(NCCO)cc1)Nc1ccc(-c2nc(N3C4CCC3COC4)nc(N3C4CCC3COC4)n2)cc1			8040 nM	1460 nM	70 nM
O=C(Nc1ccc(C(=O)NCCN2CCCC2)cc1)Nc1ccc(-c2nc(O[C@H]3CCOC3)nc(N3CCOCC3)n2)cc1	27 nM				
CC(C)Nc1nc(-c2ccc(NC(=O)NCCO)cc2)nc(N2CC3CCC(C2)O3)n1			10000 nM		
O=C(Nc1ccncc1)Nc1ccc(-c2nc(N3CCC(N4CCOCC4)CC3)nc(N3CC4CCC(C3)O4)n2)cc1			4000 nM	1850 nM	1000 nM
CN(C)CCN(C)C(=O)c1ccc(NC(=O)Nc2ccc(-c3nc(N4CCC4)nc(N4CCOCC4)n3)cc2)cc1			36 nM	2 nM	
O=C(Nc1ccc(-c2nc(OCCN3CCCCC3)nc(N3CC4CCC(C3)O4)n2)cc1)Nc1cccnc1			10000 nM		
